Experiments:
Escherichia coli O157:H7 = assay: Susceptibility to gallium nitrate, MIC/MBC, microdilution broth method; type: cell-based, Escherichia coli O157:H7 ATCC 35150; conditions: Muller Hinton broth, tryptic soy agar with 5% sheep blood, 36° C. for 48 hours, 1.38 × 10^6 CFU/ml
Procedure: (§1) Susceptibility of various microorganisms to gallium was tested by determining the minimum inhibitory concentration (MIC) and minimum bactericidal concentration (MBC) for each microorganism using gallium nitrate. In general, MIC is determined by (i) mixing a series of broths, each containing a standard number of microorganisms, with serially diluted solutions of the gallium compound; and (ii) determining the MIC, after incubation, that is the lowest concentration of the gallium compound that has inhibited the growth of the microorganism. The lower the MIC, the more susceptible the organism is. The MBC is determined by subculturing an aliquot of each sample from the MIC test on an appropriate agar plate containing no gallium compound. After incubation, the MBC is determined to be the lowest concentration of the gallium compound at which no growth is observed.
(§2) Specifically, in the present experiment, two grams of gallium nitrate powder were dissolved in 10 ml of filter-sterilized deionized water and the resulting 20% (w/v) (i.e., 200 mg/ml) solution was once again filter-sterilized. […]
(§3) The growth of the microorganisms were determined by visual observation of turbidity in the samples. […]

[1] = tested on: Vancomycin-resistant Enterococcus faecalis (VRE); assay: Susceptibility to gallium nitrate, MIC/MBC, macrodilution broth method; type: cell-based, Enterococcus faecalis ATCC 51575; conditions: Muller Hinton broth, tryptic soy agar with 5% sheep blood, 36° C. for 48 hours, 3.9 × 10^5 CFU/ml
Streptococcus mutans = assay: Susceptibility to gallium nitrate, MIC/MBC, microdilution broth method; type: cell-based, Streptococcus mutans ATCC 25175; conditions: Brain Heart Infusion broth, blood agar, 36° C. for 48 hours, 4.1 × 10^6 CFU/ml
Procedure: as §1, §2, §3

Porphyromonas gingivalis = type: cell-based, Porphyromonas gingivalis ATCC 33277
[2] = healthy adults, intravenous infusion for at least 7 days; cited from earlier work
Salmonella typhi = assay: Susceptibility to gallium nitrate, MIC/MBC, macrodilution broth method; type: cell-based, Salmonella typhi ATCC 6539; conditions: Muller Hinton broth, tryptic soy agar with 5% sheep blood, 36° C. for 48 hours, 8.3 × 10^5 CFU/ml
Campylobacter jejuni = assay: Susceptibility to gallium nitrate, MIC/MBC, microdilution broth method; type: cell-based, Campylobacter jejuni ATCC 29428; conditions: Muller Hinton broth, tryptic soy agar with 5% sheep blood, 36° C. for 48 hours, 4.9 × 10^5 CFU/ml
Procedure: as §1, §2, §3

[3] = tested on: Methicillin-resistant Staphylococcus aureus (MRSA); assay: Susceptibility to gallium nitrate, MIC/MBC, macrodilution broth method; type: cell-based, Staphylococcus aureus ATCC 33592; conditions: Muller Hinton broth, tryptic soy agar with 5% sheep blood, 36° C. for 48 hours, 5.2 × 10^5 CFU/ml
Pseudomonas aeruginosa = assay: as above; type: cell-based, Pseudomonas aeruginosa ATCC 15442; conditions: Muller Hinton broth, tryptic soy agar with 5% sheep blood, 36° C. for 48 hours, 7.6 × 10^5 CFU/ml
Candida albicans = assay: Susceptibility to gallium nitrate, MIC/MBC, microdilution broth method; type: cell-based, Candida albicans ATCC 10231; conditions: 27° C. for 48 hours, 9.75 × 10^5 CFU/ml
Procedure: as §1, §2, §3

## O=[N+]([O-])[O-].O=[N+]([O-])[O-].O=[N+]([O-])[O-].[Ga+3] [gallium nitrate]
Escherichia coli O157:H7
  MBC: 6250 µg/mL
[1]
  MBC: 25000 µg/mL
Streptococcus mutans
  MBC: 5000 µg/mL
Porphyromonas gingivalis
  MBC: <780 µg/mL
[2]
  tolerated dose: at least 200 mg/m^2/day
Salmonella typhi
  MBC: 6250 µg/mL
Campylobacter jejuni
  MBC: <780 µg/mL
[3]
  MBC: 12500 µg/mL
Pseudomonas aeruginosa
  MBC: 6250 µg/mL
Candida albicans; Sabouraud Dextrose broth
  MIC: 10000 µg/mL
Candida albicans; Sabouraud dextrose agar
  MBC: >100000 µg/mL
